Measured values published in US10292968B2, “Substituted heterocycles as bromodomain inhibitors” (Zenith Epigenetics Ltd., priority 2014, dated 2019).
Structures can show the parent of a compound that is named as a salt.

Legend:
[1] = biological target: T1, Brd4 bromodomain 1 (BRD4(1)) (Homo sapiens, UniProt O60885); test: AlphaScreen inhibition of tetra-acetylated histone H4 binding to BRD4(1); details: BRD4(1) at 20 nM, tetra-acetylated histone H4 peptide, 30 min incubation; read-out: Alpha Screen BRD4(1)
T1 construct: N-terminally His-tagged bromodomains (BRD4(1) at 20 nM and BRD4(2) at 100 nM); made in house; host or cells: E. coli BL21(DE3)
Experimental: (§1) Proteins were cloned and overexpressed with a N-terminal 6×His tag, then purified by nickel affinity followed by size exclusion chromatography. Briefly, E. coli BL21(DE3) cells were transformed with a recombinant expression vector encoding N-terminally Nickel affinity tagged bromodomains from Brd2, Brd3, Brd4. Cell cultures were incubated at 37° C. with shaking to the appropriate density and induced overnight with IPTG. The supernatant of lysed cells was loaded onto Ni-IDA column for purification. Eluted protein was pooled, concentrated and further purified by size exclusion chromatography. Fractions representing monomeric protein were pooled, concentrated, aliquoted, and frozen at −80° C. for use in subsequent experiments.
(§2) Binding of tetra-acetylated histone H4 peptide (Millipore) and BET bromodomains was confirmed by Amplified Luminescent Proximity Homogenous Assay (AlphaScreen). N-terminally His-tagged bromodomains (BRD4(1) at 20 nM and BRD4(2) at 100 nM) and biotinylated tetra-acetylated histone H4 (10-25 nM) were incubated in the presence of nickel chelate acceptor beads and streptavidin donor beads (PerkinAlmer, 6760000K) added to a final concentration of 2 μg/ml under green light in a white 96 well microtiter plate (Greiner). For inhibition assays, serially diluted compounds were added to the reaction mixtures in a 0.1% final concentrations of DMSO. Final buffer concentrations were 50 mM HEPES, 100 mM NaCl and 0.1% BSA buffer, pH 7.4 and optimized to 30 min incubation time. Assay plates were read at 570 nm on a Synergy H4 Plate Reader (Biotek). IC50 values were determined from a dose response curve.

[2] = biological target: T2, Brd 4 bromodomain 2 (BRD4(2)) (Homo sapiens, UniProt O60885); test: AlphaScreen inhibition of tetra-acetylated histone H4 binding to BRD4(2); details: BRD4(2) at 100 nM, tetra-acetylated histone H4 peptide, 30 min incubation; for IC50: read-out: Alpha Screen BRD4(2)
T2 construct: N-terminally His-tagged bromodomains (BRD4(1) at 20 nM and BRD4(2) at 100 nM); made in house; host or cells: E. coli BL21(DE3)
Experimental: as §1, §2

[3] = system: cMYC; test: Inhibition of cMYC expression (mRNA, real-time PCR) in MV4-11 cells; format: cell-based; details: Human AML MV4-11 cells, 3 h; for IC50: read-out: c-myc activity
Experimental: MV4-11 cells (CRL-9591) were plated at a density of 2.5×10^4 cells per well in 96 well U-bottom plates and treated with increasing concentrations of test compound or DMSO (0.1%) in IMDM media containing 10% FBS and penicillin/streptomycin, and incubated for 3 h at 37° C. Triplicate wells were used for each concentration. Cells were pelleted by centrifugation and harvested using the mRNA Catcher PLUS kit according to manufacturer's instructions. The eluted mRNA isolated was then used in a one-step quantitative real-time PCR reaction, using components of the RNA UltraSense™ One-Step Kit (Life Technologies) together with Applied Biosystems TaqMan® primer-probes for cMYC and Cyclophilin. Real-time PCR plates were run on a ViiA™7 real time PCR machine (Applied Biosystems), data was analyzed, normalizing the Ct values for cMYC to an internal control, prior to determining the fold expression of each sample, relative to the control.

[4] = system: MV4-11 cells; test: Inhibition of cell proliferation in MV4-11 cells (Cell Titer Aqueous One); format: cell-based; details: Human AML MV-4-11 cells, 72 h; for IC50: MV4-11
Experimental: MV4-11 cells (CRL-9591) were plated at a density of 5×10^4 cells per well in 96 well flat bottom plates and treated with increasing concentrations of test compound or DMSO (0.1%) in IMDM media containing 10% FBS and penicillin/streptomycin. Triplicate wells were used for each concentration and a well containing only media was used as a control. Plates were incubated at 37° C., 5% CO2 for 72 h before adding 20 μL of the Cell Titer Aqueous One Solution (Promega) to each well and incubated at 37° C., 5% CO2 for an additional 3-4 h. The absorbance was read at 490 nm in a spectrophotometer and the percentage of cell titer relative to DMSO-treated cells was calculated after correcting for background by subtracting the blank well's signal. IC50 values were calculated using the GraphPad Prism software.

[5] = system: hIL-6; test: Inhibition of hIL-6 mRNA transcription in LPS-stimulated U937 cells; format: cell-based; details: Homo sapiens, U-937, PMA-differentiated U937 cells, 1 h pretreatment, LPS 3 h, read-out: IL-6 activity
Experimental: Human leukemic monocyte lymphoma U937 cells (CRL-1593.2) were plated at a density of 3.2×10^4 cells per well in a 96-well plate in 100 μL RPMI-1640 containing 10% FBS and penicillin/streptomycin, and differentiated into macrophages for 3 days in 60 ng/mL PMA ([…]) at 37° C. in 5% CO2 prior to the addition of compound. The cells were pretreated for 1 h with increasing concentrations of test compound in 0.1% DMSO prior to stimulation with 1 ug/mL lipopolysaccharide from Escherichia coli. Triplicate wells were used for each concentration. The cells were incubated at 37° C., 5% CO2 for 3 h before the cells were harvested. At time of harvest, media was removed and cells were rinsed in 200 μL PBS. Cells were harvested using the mRNA Catcher PLUS kit according to manufacturer's instructions. The eluted mRNA was then used in a one-step quantitative real-time PCR reaction using components of the RNA UltraSense™ One-Step Kit (Life Technologies) together with Applied Biosystems TaqMan® primer-probes for hIL-6 and Cyclophilin. Real-time PCR plates were run on a ViiA™7 real time PCR machine (Applied Biosystems), data was analyzed, normalizing the Ct values for hIL-6 to an internal control, prior to determining the fold expression of each sample, relative to the control.

SMILES | IC50 [1] | IC50 [2] | IC50 [3] | IC50 [4] | IC50 [5] | Alpha Screen BRD4(2) [2] | c-myc activity [3] | Cell Proliferation activity [4]
CC(=O)c1cccc(-c2[nH]c(-c3ccccc3)nc2-c2n[nH]c(=O)n2C2CC2)c1 [Example 1, 3-(5-(3-acetylphenyl)-2-phenyl-1H-imidazol-4-yl)-4-cyclopropyl-1H-1,2,4-triazol-5(4H)-one hydrochloride] | ≤ 300 nM | 3000 to 30000 nM | 3000 to 30000 nM | 3000 to 30000 nM | 3000 to 30000 nM |  |  | 
NC(=O)c1cccc(-c2[nH]c(-c3ccccc3)nc2-c2n[nH]c(=O)n2C2CC2)c1 [Example 4, 3-(4-(4-cyclopropyl-5-oxo-4,5-dihydro-1H-1,2,4-triazol-3-yl)-2-phenyl-1H-imidazol-5-yl) benzamide hydrochloride] | 3000 to 30000 nM |  | 3000 to 30000 nM | 3000 to 30000 nM |  | Not Active |  | 

Now from value to molecule, other results behind:

IC50 [1] | IC50 [2] | IC50 [3] | IC50 [4] | IC50 [5] | Alpha Screen BRD4(2) [2] | SMILES | c-myc activity [3] | Cell Proliferation activity [4]
≤ 300 nM |  |  |  | 3000 to 30000 nM | Not Active | CC(=O)c1cc(-c2[nH]c(-c3ccccc3)nc2-c2n[nH]c(=O)n2C2CC2)ccc1F [Example 8, 3-(5-(3-acetyl-4-fluorophenyl)-2-phenyl-1H-imidazol-4-yl)-4-cyclopropyl-1H-1,2,4-triazol-5(4H)-one hydrochloride] | Not Active | Not Active
≤ 300 nM |  | 3000 to 30000 nM | 3000 to 30000 nM | 3000 to 30000 nM | Not Active | Cn1ncc2ccc(-c3[nH]c(-c4ccccc4)nc3-c3n[nH]c(=O)n3C3CC3)cc21 [Example 7, 4-cyclopropyl-3-(5-(1-methyl-1H-indazol-6-yl)-2-phenyl-1H-imidazol-4-yl)-1H-1,2,4-triazol-5(4H)-one hydrochloride] |  | 
300 to 3000 nM |  | 3000 to 30000 nM | 3000 to 30000 nM | 3000 to 30000 nM | Not Active | CC(=O)c1cc(F)cc(-c2[nH]c(-c3ccccc3)nc2-c2n[nH]c(=O)n2C2CC2)c1 [Example 9, 3-(5-(3-acetyl-5-fluorophenyl)-2-phenyl-1H-imidazol-4-yl)-4-cyclopropyl-1H-1,2,4-triazol-5(4H)-one hydrochloride] |  | 
≤ 300 nM | ≤ 300 nM | 3000 to 30000 nM | 3000 to 30000 nM | 3000 to 30000 nM |  | Cn1nnc2ccc(-c3[nH]c(-c4ccccc4)nc3-c3n[nH]c(=O)n3C3CC3)cc21 [Example 14, 4-cyclopropyl-3-(5-(1-methyl-1H-benzo[d][1,2,3]triazol-6-yl)-2-phenyl-1H-imidazol-4-yl)-1H-1,2,4-triazol-5(4H)-one hydrochloride] |  | 
